Results taken from ChEMBL document CHEMBL1141339, “Studies on terpenoids produced by actinomycetes: oxaloterpins A, B, C, D, and E, diterpenes from Streptomyces sp. KO-3988” (2007).

Tests used:
[1] = tested on: Bacillus subtilis; assay: Antibacterial activity against Bacillus subtilis ATCC 43223; assay type: functional
[2] = tested on: Staphylococcus aureus; assay: Antibacterial activity against Staphylococcus aureus ATCC 29213; assay type: functional

Q: For `C=C[C@@]1(C)CC=C2[C@@H](CC[C@@H]3C(C)(C)[C@H](OC(=O)C(=O)N(O)C(C)=O)CC[C@@]23C)C1` [OXALOTERPIN A], which IC [1] is on record?
A: 1.9 nmol/mL

Q: And the IC [2]?
A: 3.7 nmol/mL
